# Laboratory results published in patent US12590094B2, “Compounds for the treatment of neurodegenerative and metabolic disorders” (UNIVERSITY OF FLORIDA RESEARCH FOUNDATION, INCORPORATED, priority 2019, dated 2026).
# Where two headings read alike, the source gives them in different places.
# Key:
# Cells exposed to TPrP [1] = details: for EC50: read-out: Viability EC50
# [2] = system: PK1 neuroblastoma cells treated with TPrP; assay: cells; format: cell-based; details: Neuroblastoma cell, read-out: Viability EC50
# [3] = system: PK1 neuroblastoma cells treated with TPrP; assay: cells; format: cell-based; details: Neuroblastoma cell, read-out: NAD EC50
# [4] = system: Murine stem-cell derived neurons; assay: Cellular PD/synucleinopathy model, PFFs-seeded murine neurons, neurite length; format: cell-based; details: FIG. 14
# Protocol: Murine stem-cell derived neurons (8 days post-differentiation) were seeded with PFFs (A, B: 4 μg/ml; C, D: 3 μg/ml) and treated with the test compounds at the dose indicated, or with the vehicle DMSO, during the last 2 days of differentiation. Control cells were not PFFs-seeded. Cells were photographed by phase contrast microscopy. Neurite length was quantified using the NeuronJ plugin of ImageJ (NIH), statistical analysis was done in pairs by comparing compound-treated cells with the DMSO control (student's t-test, Prism8). Mean values and SEMs of 4 fields per each condition are shown. Each field contained approximately 50 to 100 neurons. Images shown correspond to a representative area of one field. ****P<0.0001; ***P<0.001; **P<0.01; *P<0.05; ns=not significant.
# NAMPT = molecular target: T1, NAMPT (Homo sapiens, UniProt P43490); assay: Colorimetric NAMPT activity assay (Abcam, ab221819); format: biochemical; details: tested at 5 μM or 20 μM
# T1 construct: purchased Abcam ab221819
# Protocol: Compounds were tested in a colorimetric NAMPT activity assay (Abcam, ab221819). Each data point represents a duplicate sample. […] Compounds were tested at 5 μM (A) or 20 μM (B).
# Cells exposed to TPrP [5] = assay: cells; details: read-out: Viability EC50
# T1 sequence (P43490 whole entry): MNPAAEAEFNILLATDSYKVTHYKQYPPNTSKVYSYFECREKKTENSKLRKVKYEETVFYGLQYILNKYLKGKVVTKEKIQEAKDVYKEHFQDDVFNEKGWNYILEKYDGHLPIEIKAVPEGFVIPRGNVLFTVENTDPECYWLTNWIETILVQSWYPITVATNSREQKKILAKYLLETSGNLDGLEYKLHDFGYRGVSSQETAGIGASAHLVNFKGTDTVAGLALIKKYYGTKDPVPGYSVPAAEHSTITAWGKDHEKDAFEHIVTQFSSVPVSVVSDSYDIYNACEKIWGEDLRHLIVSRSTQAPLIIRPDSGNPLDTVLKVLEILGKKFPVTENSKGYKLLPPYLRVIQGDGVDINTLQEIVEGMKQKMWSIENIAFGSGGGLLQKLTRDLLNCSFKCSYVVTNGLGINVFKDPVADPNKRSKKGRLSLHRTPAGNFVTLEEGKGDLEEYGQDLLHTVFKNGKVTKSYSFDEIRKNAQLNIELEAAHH
SMILES,EC50 [2] [nM],EC50 [3] [nM],further results
COc1ccc(-c2cc(C(F)(F)F)n3ncc(C(=O)NCCCn4ccnc4C)c3n2)cc1 [SR0-31108],,,EC50 (Cells exposed to TPrP [1]): > 50 nM
"O=c1cc(-c2ccc(O)cc2)oc2cc(O)cc(O)c12 [SR1-75663, 5,7-dihydroxy-2-(4-hydroxyphenyl)-4H-chromen-4-one]",1700,> 10000,loss of neurites induced by PFFs exposure [4]: prevent loss of neurites
Cc1ccc(-c2nnc3c4ccccc4c(C)nn23)cc1S(=O)(=O)NCc1cccnc1 [SR5-22839],28,92,
"O=c1cc(-c2ccc(O)cc2)oc2cc(O[C@@H]3O[C@H](CO)[C@H](O)[C@H](O)[C@H]3O)cc(O)c12 [SR5-2196, apigenin 7-(β-D-galactopyranosyl) ether]",4600,> 10000,
"COc1ccc(C2CC(=O)c3cc(OC)ccc3O2)cc1 (stereo not drawn) [SR5-2542, 6-methoxy-2-(4-methoxyphenyl) chroman-4-one]",2100,> 10000,
Cc1ccc(-c2nnc3c4ccccc4c(C)nn23)cc1S(=O)(=O)N1CCN(CCO)CC1 [SR1-626887],< 3,9.1,
"COc1ccc(-c2cc(=O)c3c(O)c(OC)c(O[C@H]4O[C@H](CO[C@@H]5O[C@@H](C)[C@H](O)[C@@H](O)[C@H]5O)[C@@H](O)[C@H](O)[C@H]4O)cc3o2)cc1 [SR5-2766, pectolinargenin 7-[6-O-(6-deoxy-α-L-mannopyranosyl)-β-D-glucopyranosyl] ether]",2100,4000,
Cc1nc(C)c(-c2csc(Nc3ccc(S(N)(=O)=O)cc3)n2)s1 [SR-27807],,,EC50 (Cells exposed to TPrP [1]): 50 nM
O=c1cc(-c2ccc(O)cc2)oc2cc(O[C@@H]3O[C@H](CO)[C@@H](O)[C@H](O)[C@H]3OC3OC[C@](O)(CO)[C@H]3O)cc(O)c12 (stereo partly drawn) [SR1-712126],4600,10700,
CC(=O)Nc1cccc(-c2csc(Nc3ccc(S(N)(=O)=O)cc3)n2)c1 [SR1-364643],53,263,
O=C(NCCCn1ccnc1)c1cnn2c(C(F)(F)F)cc(-c3ccc(F)cc3)nc12 [SR0-24083],,,"Viability EC50: % effective (Cells exposed to TPrP [1]; at 1 nM): ~40% effective at 1 nM, fully effective at 10 nM"
COc1ccc(-c2cc(C(F)(F)F)n3ncc(C(=O)NCCCn4ccnc4)c3n2)cc1 [SR0-28468],,,EC50 (Cells exposed to TPrP [1]): > 50 nM
"COc1cc2c(cc1O)C[C@H]1c3c(cc(O)c(OC)c3-2)CCN1C [SR1-758928, boldine]",2000,7600,
COc1ccc(-c2cc(C(F)(F)F)n3ncc(C(=O)NCCCn4ccnc4C)c3n2)cc1 [SR3-5210],,,EC50 (Cells exposed to TPrP [1]): 2.7 nM
NS(=O)(=O)c1ccc(Nc2nc(-c3ccncc3)cs2)cc1 [SR1-477186],26,365,loss of neurites induced by PFFs exposure [4]: prevent loss of neurites; Activation of NAMPT (NAMPT): not
NS(=O)(=O)c1ccc(Nc2nc(-c3ccc4ccccc4c3)cs2)cc1 [SR1-281377],192,1200,
CCc1c(C(=O)N[C@H]2CC[C@@H](N)CC2)ncc2[nH]c3cc(OC)c(OC)cc3c12 [DMCM-8137],,,neuroprotection in the TPrP neuroprotection assay (Cells exposed to TPrP [1]): neuroprotective; EC50 (Cells exposed to TPrP [5]): ~500 nM
COc1ccc(-c2nnc3c4ccccc4c(C)nn23)cc1S(=O)(=O)NC(C)(C)CO [SR1-87819],98,682,
"COc1ccc(-c2cc(=O)c3c(O)cc(OC)c(OC)c3o2)c(OC)c1 [SR5-2616, 2-(2,4-dimethoxyphenyl)-5-hydroxy-7,8-dimethoxy-4H-chromen-4-one]",1600,2100,
"CC1=C[C@@H]2c3cccc4[nH]cc(c34)C[C@H]2N(C)C1 [SR1-75354, agroclavine]",1600,2000,
COc1ccc(-c2cc(C(F)(F)F)n3ncc(C(=O)NCCCn4ccnc4)c3n2)cc1 [SR0-24081],,,EC50 (Cells exposed to TPrP [1]): 0.5 nM
"COc1cc2c(cc1OC)-c1cc3ccc(OC)c(OC)c3c[n+]1CC2 [SR1-841226, palmatine chloride]",1100,2000,
"COc1ccc(-c2cc(=O)c3c(OC)c(OC)c(OC)c(OC)c3o2)cc1 [SR-05000002625, 5,6,7,8-tetramethoxy-2-(4-methoxyphenyl)-4H-chromen-4-one]",1900,6000,
"COc1ccc2cc3[n+](cc2c1OC)CCc1cc2c(cc1-3)OCO2 [SR1-711827, berberine chloride]",3100,13200,
Cc1ccc(-c2cc(C(F)(F)F)n3ncc(C(=O)NCCCn4ccnc4)c3n2)cc1 [SR1-527764],1.9,7.1,
"COc1ccc(-c2cc(=O)c3c(O)c(OC)c(OC)c(OC)c3o2)cc1OC [SR-05000002635, 2-(3,4-dimethoxyphenyl)-5-hydroxy-6,7,8-trimethoxy-4H-chromen-4-one]",81,609,
COc1ccc(-c2nnc3c4ccccc4c(C)nn23)cc1S(=O)(=O)NCc1cccnc1 [SR5-22838],90,380,
